# Data: US10745428B2, “Antiviral phosphodiamide prodrugs of tenofovir” (Merck Sharp & Dohme Corp., priority 2015, dated 2020)
# pIC50: −log10 of the molar value. Read-outs that look alike come from different tables or passages of the source.
# Key:
# HIV-1 (H9/IIIB strain) = assay: Multiple round HIV-1 infection assay (Viking assay), HIV-1 replication in MT4-GFP cells; type: cell-based; conditions: MT4-GFP cells infected with HIV-1 H9/IIIB
# Procedure: The antiviral activity of the tenofovir prodrugs of the Examples herein was assessed in an assay that measures the rate of replication of HIV in cell culture, termed the Viking assay (VIral KINetics in Green cells) and performed as follows. HIV-1 replication was monitored using MT4-gag-GFP clone D3 (hereafter designated MT4-GFP; GFP is green fluorescent protein), which are MT-4 cells modified to harbor a GFP reporter gene, the expression of which is dependent on the HIV-1 expressed proteins tat and rev; see Wang Y-J et al., 2010J Virological Methods 165:230-237. Productive infection of an MT4-GFP cell with HIV-1 results in GFP expression approximately 24 h post-infection. MT4-GFP cells were maintained at 37° C./5% CO2/90% relative humidity in RPMI 1640 supplemented with 10% fetal bovine serum, 100 U/ml penicillin/streptomycin, and 400 μg/ml G418 to maintain the reporter gene. For infections, MT4-GFP cells were placed in the same medium lacking G418 and infected overnight with HIV-1 (H9/IIIB strain) virus at an approximate multiplicity of infection of 0.01 in the same incubation conditions. Cells were then washed and re-suspended in either RPMI 1640 supplemented with 10% or 50% normal human serum (NHS) at 1.6×10^5 cells/mL (10% NHS or 50% NHS, respectively). Compound plates were prepared by dispensing compounds dissolved in DMSO into wells of 384 well poly-D-lysine-coated plates (0.2 μl/well) using an ECHO acoustic dispenser. Each compound was tested in a 10-point serial 3-fold dilution (typical final concentrations: 8.4 μM-0.42 nM). Controls included no inhibitor (DMSO only) and a combination of three antiviral agents (efavirenz, indinavir, and an integrase strand transfer inhibitor at final concentrations of 4 μM each). Cells were added (50 μL/well) to compound plates and the infected cells were maintained at 37′C/5% CO2/90% relative humidity.
# Infected cells were quantified at two time points, ˜48 h and ˜72 h post-infection, by counting the number of green cells in each well using an Acumen eX3 scanner. The increase in the number of green cells over ˜24 h period gives the reproductive ratio, R0, which is typically 5-15 and has been shown experimentally to be in logarithmic phase (data not shown). R0 is calculated for each well, and IC50s determined by non-linear 4-parameter curve fitting.
# [1] = Prodrug stability assay in bio-relevant media (FaSSIF with Pancreatin), GI Tract stability; type: in vitro ADME; conditions: HPLC peak area of prodrug at 5 h divided by area at 0 h; 0.5 mg/mL Pancreatin in FaSSIF, 37° C.
# Procedure: The following assay was employed to evaluate the stability of the prodrugs in simulated gastrointestinal tract conditions. Preparation of fasted state simulated intestinal fluid (FaSSIF) using Phares SIF Powder was carried out according to protocols from Phare Drug Delivery AG (Baselland, Switzerland). For sample preparation, 10 μL stock solutions (10 mM) of prodrug substance in DMSO was added to 990 μL of 0.5 mg/mL Pancreatin solution (Fisher CAS#8049-47-6) in FaSSIF. Two samples were prepared for each compound. If the sample was a clear solution, it was directly analyzed by HPLC. If the sample was not clear, the sample was diluted with 100% ACN, maintained at 37° C. and observed 5 h later. If the sample was clear, HPLC analysis was directly performed. If the sample was still not clear, the sample was diluted with 100% ACN and assayed by HPLC. All the samples were vortexed for 3 min and observed before injection. For the diluted samples, the area is multiplied by a factor when the data is analyzed. The analysis was carried out with an Agilent 1100 series HPLC with autosampler. The column was usually a Poroshell 120 EC-C18, 4.6×50 mm, 2.7 μm. The flow rate was 1.8 mL/min, and the injection volume was 5 or 10 μL. UV detection was in the range 210-400 nm. The mobile phase consisted of solvent A (water plus 10 mM tetrabutylammonium bromide) and solvent B (acetonitrile) with a gradient of 90% solvent A at 0 min, changing to 95% solvent B over 6 min, maintaining for 1.5 min, then reverting to 90% solvent A over 1.6 min. The HPLC peak area of the prodrug at 5 h was divided by the HPLC peak area of the prodrug at 0 h, to generate the % claimed parent ratio, which is summarized in Table 2. for GI Tract stability.
# [2] = 10% normal human serum, read-out: Viking, IC50 (10% NHS)
# [3] = 50% normal human serum, read-out: Viking, IC50 (50% NHS)
# [4] = Human immunodeficiency virus 1, IIIB, 10% normal human serum, read-out: Viking, IC50 (10% NHS)
# [5] = Human immunodeficiency virus 1, IIIB, 50% normal human serum, read-out: Viking, IC50 (50% NHS)
SMILES,pIC50 (HIV-1 (H9/IIIB strain); [2]),pIC50 (HIV-1 (H9/IIIB strain); [3]),GI Tract stability [1],pIC50 (HIV-1 (H9/IIIB strain); [4]),pIC50 (HIV-1 (H9/IIIB strain); [5])
"C[C@H](Cn1cnc2c(N)ncnc21)OCP(=O)(N[C@H](C)C(=O)OC1CCCC1)NC(C)(C)C(=O)OC1CCCCC1 (single isomer, unassigned) [Example 27B]",8.80,8.33,93.5%,,
"C[C@H](Cn1cnc2c(N)ncnc21)OCP(=O)(N[C@H](C)C(=O)OC1CCCC1)NC(C)(C)C(=O)OC1CCC1 (single isomer, unassigned) [Example 28B]",8.57,8.48,90.2%,,
"CCCCCCOC(=O)C(C)(C)NP(=O)(CO[C@H](C)Cn1cnc2c(N)ncnc21)N[C@H](C)C(=O)OCC(C)C (single isomer, unassigned) [Example 10B]",9.15,8.70,66.8%,,
"CC(C)COC(=O)C(C)(C)NP(=O)(CO[C@H](C)Cn1cnc2c(N)ncnc21)N[C@H](C)C(=O)OC1CCC1 (single isomer, unassigned) [Example 20A]",8.23,7.76,98.1%,,
"CCCCOC(=O)C(C)(C)NP(=O)(CO[C@H](C)Cn1cnc2c(N)ncnc21)N[C@H](C)C(=O)OC1CCC1 (single isomer, unassigned) [Example 23B]",8.22,7.87,58.6%,,
"CCCOC(=O)C(C)(C)NP(=O)(CO[C@H](C)Cn1cnc2c(N)ncnc21)N[C@H](C)C(=O)OC1CCC1 (single isomer, unassigned) [Example 22A]",7.94,7.29,98.2%,,
"CCCCOC(=O)[C@@H](C)NP(=O)(CO[C@H](C)Cn1cnc2c(N)ncnc21)NC(C)(C)C(=O)OC(C)C (single isomer, unassigned) [Example 3B]",8.42,7.69,95.6%,,
"CCCCCCOC(=O)[C@@H](C)NP(=O)(CO[C@H](C)Cn1cnc2c(N)ncnc21)NC(C)(C)C(=O)OCCCCCC (single isomer, unassigned) [Example 13B]",,,83.8%,,
"CCCCCOC(=O)C(C)(C)NP(=O)(CO[C@H](C)Cn1cnc2c(N)ncnc21)N[C@H](C)C(=O)OCCCC (single isomer, unassigned) [Example 9B]",9.00,8.38,73.9%,,
"CCCCCCOC(=O)C(C)(C)NP(=O)(CO[C@H](C)Cn1cnc2c(N)ncnc21)N[C@H](C)C(=O)OC1CCCCC1 (single isomer, unassigned) [Example 15B]",9.15,8.68,51.2%,,
"CCCCCOC(=O)[C@@H](C)NP(=O)(CO[C@H](C)Cn1cnc2c(N)ncnc21)NC(C)(C)C(=O)OCCCCC (single isomer, unassigned) [Example 16B]",9.05,8.38,97.8%,,
"CC(C)COC(=O)C(C)(C)NP(=O)(CO[C@H](C)Cn1cnc2c(N)ncnc21)N[C@H](C)C(=O)OC1CCC1 (single isomer, unassigned) [Example 20B]",8.77,8.23,71.0%,,
"CCCCCOC(=O)C(C)(C)NP(=O)(CO[C@H](C)Cn1cnc2c(N)ncnc21)N[C@H](C)C(=O)OC1CCC1 (single isomer, unassigned) [Example 19B]",8.60,7.97,49.3%,,
"CCCCCOC(=O)[C@@H](C)N(C)P(=O)(CO[C@H](C)Cn1cnc2c(N)ncnc21)NC(C)(C)C(=O)OCCCCC (single isomer, unassigned) [Example 25B]",,,94.4%,8.44,8.02
"CCCCCCOC(=O)[C@@H](C)NP(=O)(CO[C@H](C)Cn1cnc2c(N)ncnc21)NC(C)(C)C(=O)OCCCCCC (single isomer, unassigned) [Example 13A]",,,99.1%,8.14,7.39
"CC(C)OC(=O)C(C)(C)NP(=O)(CO[C@H](C)Cn1cnc2c(N)ncnc21)N[C@H](C)C(=O)OC1CCC1 (single isomer, unassigned) [Example 18B]",7.96,7.59,97.4%,,
"CCCCCOC(=O)C(C)(C)NP(=O)(CO[C@H](C)Cn1cnc2c(N)ncnc21)N[C@H](C)C(=O)OC1CCCC1 (single isomer, unassigned) [Example 24A]",8.49,7.51,97.8%,,
"CCCCCCOC(=O)C(C)(C)NP(=O)(CO[C@H](C)Cn1cnc2c(N)ncnc21)N[C@H](C)C(=O)OC1CCCC1 (single isomer, unassigned) [Example 14B]",9.22,8.70,47.2%,,
"CCCOC(=O)C(C)(C)NP(=O)(CO[C@H](C)Cn1cnc2c(N)ncnc21)N[C@H](C)C(=O)OC1CCC1 (single isomer, unassigned) [Example 22B]",8.36,7.81,72.6%,,
"CCCCCOC(=O)[C@H]1CCCN1P(=O)(CO[C@H](C)Cn1cnc2c(N)ncnc21)NC(C)(C)C(=O)OCCCCC (single isomer, unassigned) [Example 26B]",8.36,7.71,92.5%,,
"CCCCCCOC(=O)C(C)(C)NP(=O)(CO[C@H](C)Cn1cnc2c(N)ncnc21)N[C@H](C)C(=O)OC(C)C (single isomer, unassigned) [Example 2A]",7.80,7.11,100%,,
"CCCCCCOC(=O)C(C)(C)NP(=O)(CO[C@H](C)Cn1cnc2c(N)ncnc21)N[C@H](C)C(=O)OC(C)C (single isomer, unassigned) [Example 2B]",8.89,8.28,94.2%,,
"CC(C)OC(=O)C(C)(C)NP(=O)(CO[C@H](C)Cn1cnc2c(N)ncnc21)N[C@H](C)C(=O)OC1CCCC1 (single isomer, unassigned) [Example 1B]",8.62,8.21,95.9%,,
"CCCCCOC(=O)C(C)(C)NP(=O)(CO[C@H](C)Cn1cnc2c(N)ncnc21)N[C@H](C)C(=O)OCCCC (single isomer, unassigned) [Example 9A]",8.21,7.70,100%,,
"CCCCCOC(=O)C(C)(C)NP(=O)(CO[C@H](C)Cn1cnc2c(N)ncnc21)N[C@H](C)C(=O)OC(C)C (single isomer, unassigned) [Example 17B]",8.89,8.28,94.2%,,
"CCCCCOC(=O)C(C)(C)NP(=O)(CO[C@H](C)Cn1cnc2c(N)ncnc21)N[C@H](C)C(=O)OC1CCCC1 (single isomer, unassigned) [Example 24B]",9.05,8.41,82.7%,,
"CCCCCOC(=O)C(C)(C)NP(=O)(CO[C@H](C)Cn1cnc2c(N)ncnc21)N[C@H](C)C(=O)OC(C)C (single isomer, unassigned) [Example 17A]",7.80,7.11,100%,,
